Assay results from PMC8041304, “Halogen Atoms in the Protein–Ligand System. Structural and Thermodynamic Studies of the Binding of Bromobenzotriazoles by the Catalytic Subunit of Human Protein Kinase CK2” (The Journal of Physical Chemistry. B, 2021).
Several values for one entry are separate records, joined by “and”; a condition that tells them apart may be missing. Equal values may be shown once.

What was measured:
hCK2α [1] = target: T1, hCK2α (Homo sapiens, UniProt P68400); set-up: method as in PMID 25891901; conditions: cited from earlier work
T1 construct: made in house

hCK2α [2] = target: T1, hCK2α; assay: Isothermal titration calorimetry (MicroCal iTC200), reverse titration; format: binding; conditions: for ΔGbind, free energy of binding: ITC; for ΔSrt, entropic term for loss of ligand rotational and translational degrees of freedom: calculated from ligand molecular mass; for Ts, temperature at which the entropy change upon ligand binding is zero: estimated from the linear fit of ΔS(T); for ΔSother, entropy change assigned to all other processes accompanying ligand binding: ΔSrt + ΔSHE(Ts) + ΔSother = 0; for ΔSHE(Ts), hydrophobic-effect contribution to the entropy change upon binding: ≈ 1.35∙ΔCp,bind∙ln(Ts/386)
Procedure: ITC measurements were carried out using the MicroCal iTC200 (Malvern) calorimeter. The hCK2α samples were diluted to the required protein concentration with the 25 mM Tris-HCl pH 8 buffer containing 0.5 M NaCl. Stock ligand solutions were diluted with the appropriate DMSO volume prior to mixing with the buffer to obtain the required ligand concentration and a final DMSO content of 1%. Due to the limited solubility of halogenated benzotriazoles, all titration experiments were performed in the reverse mode, in which buffered ligand solution was placed in the calorimetric cell and titrated with the protein solution.[35]
In all experiments the maximum ligand concentration of 10 μM was used to minimize a possible contribution of the secondary binding site.

[3] = Density measurements: partial molar volume and thermal expansivity of the solute; format: physicochemical; conditions: 50 mM phosphate buffer pH 11; for α2^0, thermal volumetric expansivity of the solute: 20, 25, 30 °C; for V2^0, partial molar volume: 25 °C
Procedure: Partial molar volumes were estimated with a density meter Anton Paar DMA 5000 M at 20, 25, and 30 °C from the concentration–density dependency for compounds dissolved in 50 mM phosphate buffer (pH 11). The experimental procedure and the data analysis method were described previously.[36],[57],[58] The partial molar volume at 25 °C (V2^0) and thermal volumetric expansivity of the solute (α2^0 = ∂V2^0/∂T) were estimated globally from two independent dilution series. The density of pure solvent (d0) was extrapolated individually for each experimental condition (i.e., temperature and buffer preparation). The change of d0 with temperature was further used to determine thermal volumetric expansivity coefficient of the bulk buffer according to the formula α0 = −(∂d0/∂T)/d0.
According to the Lum, Chandler, and Weeks (LCW) theory, the hydrophobic interactions scale for solutes of subnanometer size with the volume of the molecule rather than its surface.[61] We have recently proposed partial molar volume as the extensive parameter to describe both the solute volume and the solute-induced reorganization of the solvation shell.[36],[57],[58],[62],[63] By analyzing density data at three temperatures (20, 25, and 30 °C), we could estimate the partial molar volume of the ligand (V2^0) and the bulk solvent density (d0(T)). We could further separate the thermal expansivity coefficient of the bulk solvent (α0) and the apparent expansivity of the solute (α2^0). The latter parameter is comprised mainly of the thermal expansion effect of the hydration shell. The values of α0 fell within the narrow range of (26.9 ± 1.3) × 10^–5 K^–1, which is close to the literature data for water (25.72 × 10^–5 K^–1 at 25 °C).[64] […] The solute thermal expansivity (α2^0), together with the change of isobaric heat capacity upon ligand binding (ΔCp,bind), has already been associated with the properties of the solvation layer.[65],[66] Importantly, α2^0 is proportional to the partial molar volume V2^0 (Figure 3D). So, V2^0 may be another descriptor of hydrophobic interactions. Consequently, the volume-normalized solute expansivity coefficient (α = α2^0/V2^0) is almost the same for all studied bromobenzotriazoles (232 ± 22 × 10^–5 K^–1). Importantly, this value substantially exceeds the thermal expansivity coefficient of the bulk buffer (α0 = 26.9 ± 1.3 × 10^–5 K^–1), clearly confirming that water organization changes with temperature more near the solute surface than in the bulk.

hCK2α [4] = target: T1, hCK2α; assay: Fluorescence-monitored thermal denaturation (nanoDSF) of hCK2α complexes; format: binding; conditions: protein 2.5 μM, ligand 25 μM; for Tm (°C) at pH 7.5: hCK2α in complex with ligand; for ΔTm (°C) at pH 7.5: unfolding temperature with ligand minus without
Procedure: The samples were loaded into nanoDSF grade Standard Capillaries (NanoTemper Technologies) and analyzed using the Prometheus NT.48 nanoDSF device (NanoTemper Technologies). Thermal unfolding of the protein was monitored using a linear thermal ramp (1 °C·min^–1; 20–80 °C) with an excitation power of 30%.
This prompted us to measure the thermal stabilities of hCK2α and its complexes at pH 7.5 by fluorescence-monitored thermal denaturation (nanoDSF) (Table 2).

[5] = set-up: method as in PMID 32162783; conditions: HPLC-derived hydrophobicity; cited from earlier work
hCK2α [6] = target: T1, hCK2α; set-up: method as in PMID 23155426; conditions: pH 7.5; cited from earlier work
[7] = set-up: method as in doi:10.1016/j.molliq.2019.111527; conditions: calculated water–octanol partition coefficient; cited from earlier work
[8] = iTC200, 15 °C, pH 8, independent experiments separately evaluated
[9] = iTC200, 20 °C, pH 8, independent experiments separately evaluated
[10] = iTC200, 25 °C, pH 8, independent experiments separately evaluated
[11] = iTC200, 30 °C, pH 8, independent experiments separately evaluated
[12] = iTC200, 35 °C, pH 8, independent experiments separately evaluated

T1 sequence (P68400 whole entry): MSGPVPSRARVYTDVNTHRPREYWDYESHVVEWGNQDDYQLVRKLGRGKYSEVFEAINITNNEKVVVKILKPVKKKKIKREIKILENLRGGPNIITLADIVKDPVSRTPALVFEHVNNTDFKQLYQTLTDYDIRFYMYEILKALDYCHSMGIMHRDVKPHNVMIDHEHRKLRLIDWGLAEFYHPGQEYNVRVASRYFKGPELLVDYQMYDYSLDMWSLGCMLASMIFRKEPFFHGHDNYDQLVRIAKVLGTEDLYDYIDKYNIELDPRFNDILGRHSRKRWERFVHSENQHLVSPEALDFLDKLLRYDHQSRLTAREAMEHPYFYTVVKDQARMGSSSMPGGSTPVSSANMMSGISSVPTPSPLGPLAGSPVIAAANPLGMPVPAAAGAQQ

Structure (SMILES) | ΔTm (°C) at pH 8 (hCK2α [1]) [°C] | ΔGbind, free energy of binding (hCK2α [2]; 25 °C, pH 8) | ΔSrt, entropic term for loss of ligand rotational and translational degrees of freedom (hCK2α [2]) [J∙mol-1∙K-1] | Ts, temperature at which the entropy change upon ligand binding is zero (hCK2α [2]) [K] | Kd (hCK2α [2]; [8]) | ΔS (hCK2α [2]; [8]) | Kd (hCK2α [2]; [9]) | ΔS (hCK2α [2]; [9]) | Kd (hCK2α [2]; [10]) | ΔS (hCK2α [2]; [10]) | Kd (hCK2α [2]; [11]) | Kd (hCK2α [2]; [12]) | ΔS (hCK2α [2]; [12]) | α2^0, thermal volumetric expansivity of the solute [3] [cm^3·mol^–1·K^–1] | V2^0, partial molar volume [3] [cm^3·mol^–1] | Tm (°C) at pH 7.5 (hCK2α [4]) [°C] | ΔTm (°C) at pH 7.5 (hCK2α [4]) [°C] | log(τ) [5] | IC50 (hCK2α [6]) [µM] | log P [7] | other results
Brc1cc(Br)c2[nH]nnc2c1Br [4,5,7-Br3Bt] | 5.2 ± 0.1 | –34.5 ± 0.4 kJ·mol^–1 | -301 | 316 ± 33 | 0.67 µM and 0.76 µM | 69 ± 8 J·mol-1·K-1 and 56 ± 8 J·mol-1·K-1 | 0.71 µM and 1.2 µM | 53 ± 6 J·mol-1·K-1 and 47 ± 11 J·mol-1·K-1 | 0.9 µM and 0.91 µM | 34 ± 5 J·mol-1·K-1 and 38 ± 9 J·mol-1·K-1 | 1.36 µM and 0.76 µM | 1.23 µM and 0.87 µM | 15 ± 6 J·mol-1·K-1 and 8 ± 6 J·mol-1·K-1 | 0.55 ± 0.23 | 174.7 ± 0.9 | 49.81 ± 0.07 | 4.6 ± 0.1 | –0.22 | 5.8 ± 0.9 | 2.98 | ΔG (hCK2α [2]; [10]): -8.25 ± 0.12 kcal/mol and -8.25 ± 0.19 kcal/mol; ΔS (hCK2α [2]; [11]): 24 ± 8 J·mol-1·K-1 and 34 ± 6 J·mol-1·K-1; ΔSother, entropy change assigned to all other processes accompanying ligand binding (hCK2α [2]): 118 ± 16 J∙mol-1∙K-1; ΔSHE(Ts), hydrophobic-effect contribution to the entropy change upon binding (hCK2α [2]): 184 ± 16 J∙mol-1∙K-1
Brc1cccc2n[nH]nc12 [4-BrBt] | 0.5 ± 0.1 | – | – | – | – | – | – | – | – | – | – | – | – | 0.30 ± 0.08 | 139.6 ± 0.3 | 45.92 ± 0.05 | 0.7 ± 0.1 | –0.65 | 119 ± 10 | 1.72 | –
Brc1cc(Br)c2n[nH]nc2c1 [4,6-Br2Bt] | 3.6 ± 0.1 | –34.5 ± 0.4 kJ·mol^–1 | -291 | 301 ± 47 | 0.343 µM and 0.54 µM | 26 ± 8 J·mol-1·K-1 and 23 ± 12 J·mol-1·K-1 | 0.55 µM and 0.68 µM | 7 ± 15 J·mol-1·K-1 and 11 ± 13 J·mol-1·K-1 | 0.9 µM and 0.88 µM | 5 ± 8 J·mol-1·K-1 and 9 ± 15 J·mol-1·K-1 | 1.25 µM and 1.14 µM and 0.84 µM | 2.4 µM and 1.77 µM | -26 ± 71 J·mol-1·K-1 and -26 ± 13 J·mol-1·K-1 | 0.41 ± 0.21 | 155.4 ± 0.9 | 49.21 ± 0.04 | 4.0 ± 0.1 | –0.38 | 10 ± 2.2 | 2.37 | ΔSother, entropy change assigned to all other processes accompanying ligand binding (hCK2α [2]): 143 ± 20 J∙mol-1∙K-1; ΔSHE(Ts), hydrophobic-effect contribution to the entropy change upon binding (hCK2α [2]): 148 ± 20 J∙mol-1∙K-1
Brc1ccc(Br)c2n[nH]nc12 [4,7-Br2Bt] | 0.9 ± 0.1 | – | – | – | – | – | – | – | – | – | – | – | – | 0.19 ± 0.25 | 149.8 ± 1.0 | 47.15 ± 0.03 | 2.0 ± 0.1 | –0.55 | 72 ± 11 | 2.37 | –
